# Structures can show the parent of a compound that is named as a salt.
# Molecular target: T1, PDE4B (human recombinant) (Homo sapiens, UniProt Q07343)
# T1 construct: made in house
# Assay: PDE4B inhibition, fluorescence polarisation (FP) and/or SPA assay
# Format: biochemical
# Settings: n=1 or average of 2 or more readings, accuracy ±about 0.5 log unit, read-out: PDE4B pIC50 (generally in FP assay) (±about 0.5) (converted)
# Excerpt: Human recombinant PDE4B, in particular the 2B splice variant thereof (HSPDE4B2B), is disclosed in WO 94/20079 and also M. M. McLaughlin et al., “A low Km, rolipram-sensitive, cAMP-specific phosphodiesterase from human brain: cloning and expression of cDNA, biochemical characterisation of recombinant protein, and tissue distribution of mRNA”, J. Biol. Chem., 1993, 268, 6470-6476. For example, in Example 1 of WO 94/20079, human recombinant PDE4B is described as being expressed in the PDE-deficient yeast Saccharomyces cerevisiae strain GL62, e.g. after induction by addition of 150 uM CuSO4, and 100,000×g supernatant fractions of yeast cell lysates are described for use in the harvesting of PDE4B enzyme.
# The ability of compounds to inhibit catalytic activity at PDE4B or 4D (human recombinant), PDE3 (from bovine aorta), PDE5 (human recombinant) or PDE6 (from bovine retina) can optionally be determined by Scintillation Proximity Assay (SPA) in a 96-well format.
# Test compounds (as a solution in DMSO, preferably about 2 microliter (ul) volume of DMSO solution) are preincubated at ambient temperature (room temperature, e.g. 19-23° C.) in Wallac Isoplates (code 1450-514) with PDE enzyme in 50 mM Tris-HCl buffer pH 7.5, 8.3 mM MgCl2, 1.7 mM EGTA, 0.05% (w/v) bovine serum albumin for 10-30 minutes (usually 30 minutes). The enzyme concentration is adjusted so that no more than 20% hydrolysis of the substrate defined below occurs in control wells without compound, during the incubation. For the PDE3, PDE4B and PDE4D assays, [5′,8-3H]Adenosine 3′,5′-cyclic phosphate (Amersham Pharmacia Biotech, code TRK.559; or Amersham Biosciences UK Ltd, Pollards Wood, Chalfont St Giles, Buckinghamshire HP8 4SP, UK) is added to give 0.05 uCi per well and about 10 nM final concentration. For the PDE5 and PDE6 assays, [8-^3H]Guanosine 3′,5′-cyclic phosphate (Amersham Pharmacia Biotech, code TRK.392) is added to give 0.05 uCi per well and about 36 nM final concentration. Plates containing assay mixture, preferably approx. 100 ul volume of assay mixture, are mixed on an orbital shaker for 5 minutes and incubated at ambient temperature for 1 hour. Phosphodiesterase SPA beads (Amersham Pharmacia Biotech, code RPNQ 0150) are added (about 1 mg per well) to terminate the assay. Plates are sealed and shaken and allowed to stand at ambient temperature for 35 minutes to 1 hour (preferably 35 minutes) to allow the beads to settle. Bound radioactive product is measured using a WALLAC TRILUX 1450 Microbeta scintillation counter. For inhibition curves, 10 concentrations (e.g. 1.5 nM-30 uM) of each compound are assayed. Curves are analysed using ActivityBase and XLfit (ID Business Solutions Limited, 2 Ocean Court, Surrey Research Park, Guildford, Surrey GU2 7QB, United Kingdom) Results are expressed as pIC50 values.
# The ability of compounds to inhibit catalytic activity at PDE4B (human recombinant) or PDE4D (human recombinant) can optionally be determined by IMAP Fluorescence Polarisation (FP) assay (IMAP Explorer kit, available from Molecular Devices Corporation, Sunnydale, Calif., USA; Molecular Devices code: R8062) in 384-well format.
# The IMAP FP assay is able to measure PDE activity in an homogenous, non-radioactive assay format. The FP assay uses the ability of immobilised trivalent metal cations, coated onto nanoparticles (tiny beads), to bind the phosphate group of FI-AMP that is produced on the hydrolysis of fluorescein-labelled (FI) cyclic adenosine mono-phosphate (FI-cAMP) to the non-cyclic FI-AMP form. […] Binding of FI-AMP product to the beads (coated with the immobilised trivalent cations) slows the rotation of the bound FI-AMP and leads to an increase in the fluorescence polarisation ratio of parallel to perpendicular light. Inhibition of the PDE reduces/inhibits this signal increase. […]
# T1 sequence (Q07343 1-564 isoform Q07343-2): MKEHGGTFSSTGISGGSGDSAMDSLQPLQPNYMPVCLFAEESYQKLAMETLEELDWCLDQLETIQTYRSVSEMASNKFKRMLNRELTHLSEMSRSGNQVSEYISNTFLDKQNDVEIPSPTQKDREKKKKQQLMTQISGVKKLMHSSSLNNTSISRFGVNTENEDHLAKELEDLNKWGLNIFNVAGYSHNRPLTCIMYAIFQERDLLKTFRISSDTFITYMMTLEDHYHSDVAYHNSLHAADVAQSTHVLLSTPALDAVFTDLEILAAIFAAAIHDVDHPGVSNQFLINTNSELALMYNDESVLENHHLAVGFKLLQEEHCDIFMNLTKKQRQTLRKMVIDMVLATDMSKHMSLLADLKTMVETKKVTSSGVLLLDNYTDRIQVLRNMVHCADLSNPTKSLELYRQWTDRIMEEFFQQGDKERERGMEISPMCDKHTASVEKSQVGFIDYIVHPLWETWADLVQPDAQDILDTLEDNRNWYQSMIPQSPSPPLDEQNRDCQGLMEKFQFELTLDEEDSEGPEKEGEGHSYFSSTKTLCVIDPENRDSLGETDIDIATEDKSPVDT
row,IC50,Compound
1,0.0158 to 0.1 nM,"CCc1nc2c(cnn2CC)c(NC2CCN(C(N)=O)CC2)c1CNC(=O)C1CCC(C(=O)NCc2c(CC)nc3c(cnn3CC)c2NC2CCN(C(N)=O)CC2)C1 (stereo not drawn) [Example 20, N,N′-bis[(4-{[1-(aminocarbonyl)-4-piperidinyl]amino}-1,6-diethyl-1H-pyrazolo[3,4-b]pyridin-5-yl)methyl]-1,3-cyclopentanedicarboxamide trifluoroacetate]"
2,0.0158 to 0.1 nM,"CCc1nc2c(cnn2CC)c(NC2CCN(C(N)=O)CC2)c1CNC(=O)c1ccc(-c2ccc(C(=O)NCc3c(CC)nc4c(cnn4CC)c3NC3CCN(C(N)=O)CC3)cc2)cc1 [Example 26, N,N′-bis[(4-{[1-(aminocarbonyl)-4-piperidinyl]amino}-1,6-diethyl-1H-pyrazolo[3,4-b]pyridin-5-yl)methyl]-4,4′-biphenyldicarboxamide]"
3,0.0158 to 0.1 nM,"CCc1nc2c(cnn2CC)c(NC2CCOCC2)c1CNC(=O)c1ccc(Cc2ccc(C(=O)NCc3c(CC)nc4c(cnn4CC)c3NC3CCOCC3)cc2)cc1 [Example 5, 4,4′-methanediylbis(N-{[1,6-diethyl-4-(tetrahydro-2H-pyran-4-ylamino)-1H-pyrazolo[3,4-b]pyridin-5-yl]methyl}benzamide)]"
4,0.126 to 1 nM,"CCc1nc2c(cnn2CC)c(NC2CCOCC2)c1CNC(=O)CCCC(=O)NCc1c(CC)nc2c(cnn2CC)c1NC1CCOCC1 [Example 2, N,N′-bis{[1,6-diethyl-4-(tetrahydro-2H-pyran-4-ylamino)-1H-pyrazolo[3,4-b]pyridin-5-yl]methyl}pentanediamide]"
5,0.126 to 1 nM,"CCc1nc2c(cnn2CC)c(NC2CCOCC2)c1CNC(=O)c1ccc(Oc2ccc(C(=O)NCc3c(CC)nc4c(cnn4CC)c3NC3CCOCC3)cc2)cc1 [Example 24, 4,4′-oxybis(N-{[1,6-diethyl-4-(tetrahydro-2H-pyran-4-ylamino)-1H-pyrazolo[3,4-b]pyridin-5-yl]methyl}benzamide)]"
6,0.0158 to 0.1 nM,"CCc1nc2c(cnn2CC)c(NC2CCOCC2)c1CNC(=O)CC(C)(C)CC(=O)NCc1c(CC)nc2c(cnn2CC)c1NC1CCOCC1 [Example 3, N,N′-bis{[1,6-diethyl-4-(tetrahydro-2H-pyran-4-ylamino)-1H-pyrazolo[3,4-b]pyridin-5-yl]methyl}-3,3-dimethylpentanediamide]"
7,0.0158 to 0.1 nM,"CCc1nc2c(cnn2CC)c(NC2CCN(C(N)=O)CC2)c1CNC(=O)CCc1ccc(C(=O)NCc2c(CC)nc3c(cnn3CC)c2NC2CCN(C(N)=O)CC2)cc1 [Example 14, 4-({5-[({3-[4-({[(4-{[1-(aminocarbonyl)-4-piperidinyl]amino}-1,6-diethyl-1H-pyrazolo[3,4-b]pyridin-5-yl)methyl]amino}carbonyl)phenyl]propanoyl}amino)methyl]-1,6-diethyl-1H-pyrazolo[3,4-b]pyridin-4-yl}amino)-1-piperidinecarboxamide trifluoroacetate]"
8,0.126 to 1 nM,"CCc1nc2c(cnn2CC)c(NC2CCOCC2)c1CNC(=O)Cc1ccc(CC(=O)NCc2c(CC)nc3c(cnn3CC)c2NC2CCOCC2)cc1 [Example 6, 2,2′-benzene-1,4-diylbis(N-{[1,6-diethyl-4-(tetrahydro-2H-pyran-4-ylamino)-1H-pyrazolo[3,4-b]pyridin-5-yl]methyl}acetamide)]"
9,0.0158 to 0.1 nM,"CCc1nc2c(cnn2CC)c(NC2CCN(C(N)=O)CC2)c1CNC(=O)CC(C)(C)CC(=O)NCc1c(CC)nc2c(cnn2CC)c1NC1CCN(C(N)=O)CC1 [Example 19, N,N′-bis[(4-{[1-(aminocarbonyl)-4-piperidinyl]amino}-1,6-diethyl-1H-pyrazolo[3,4-b]pyridin-5-yl)methyl]-3,3-dimethylpentanediamide trifluoroacetate]"
10,0.0158 to 0.1 nM,"CCc1nc2c(cnn2CC)c(NC2CCN(C(N)=O)CC2)c1CNC(=O)c1ccc(Cc2ccc(C(=O)NCc3c(CC)nc4c(cnn4CC)c3NC3CCN(C(N)=O)CC3)cc2)cc1 [Example 18, 4,4′-{methanediylbis[benzene-4,1-diyl(oxomethanediyl)iminomethanediyl(1,6-diethyl-1H-pyrazolo[3,4-b]pyridine-5,4-diyl)imino]}di(1-piperidinecarboxamide) trifluoroacetate]"
11,0.0158 to 0.1 nM,"CCc1nc2c(cnn2CC)c(NC2CCOCC2)c1CNC(=O)CCc1ccccc1C(=O)NCc1c(CC)nc2c(cnn2CC)c1NC1CCOCC1 [Example 7, N-{[1,6-diethyl-4-(tetrahydro-2H-pyran-4-ylamino)-1H-pyrazolo[3,4-b]pyridin-5-yl]methyl}-2-[3-({[1,6-diethyl-4-(tetrahydro-2H-pyran-4-ylamino)-1H-pyrazolo[3,4-b]pyridin-5-yl]methyl}amino)-3-oxopropyl]benzamide]"
12,0.0158 to 0.1 nM,"CCc1nc2c(cnn2CC)c(NC2CCN(C(N)=O)CC2)c1CNC(=O)COc1ccccc1C(=O)NCc1c(CC)nc2c(cnn2CC)c1NC1CCN(C(N)=O)CC1 [Example 16, 4-[(5-{[({[2-({[(4-{[1-(aminocarbonyl)-4-piperidinyl]amino}-1,6-diethyl-1H-pyrazolo[3,4-b]pyridin-5-yl)methyl]amino}carbonyl)phenyl]oxy}acetyl)amino]methyl}-1,6-diethyl-1H-pyrazolo[3,4-b]pyridin-4-yl)amino]-1-piperidinecarboxamide trifluoroacetate]"
13,0.126 to 1 nM,"CCc1nc2c(cnn2CC)c(NC2CCOCC2)c1CNC(=O)Cc1cccc(CC(=O)NCc2c(CC)nc3c(cnn3CC)c2NC2CCOCC2)c1 [Example 8, 2,2′-benzene-1,3-diylbis(N-{[1,6-diethyl-4-(tetrahydro-2H-pyran-4-ylamino)-1H-pyrazolo[3,4-b]pyridin-5-yl]methyl}acetamide)]"
14,0.126 to 1 nM,"CCc1nc2c(cnn2CC)c(NC2CCOCC2)c1CNC(=O)c1cnc(C(=O)NCc2c(CC)nc3c(cnn3CC)c2NC2CCOCC2)cn1 [Example 32, N,N′-bis{[1,6-diethyl-4-(tetrahydro-2H-pyran-4-ylamino)-1H-pyrazolo[3,4-b]pyridin-5-yl]methyl}-2,5-pyrazinedicarboxamide]"
15,0.0158 to 0.1 nM,"CCc1nc2c(cnn2CC)c(NC2CCOCC2)c1CNC(=O)c1ccnc(-c2cc(C(=O)NCc3c(CC)nc4c(cnn4CC)c3NC3CCOCC3)ccn2)c1 [Example 31, N,N′-bis{[1,6-diethyl-4-(tetrahydro-2H-pyran-4-ylamino)-1H-pyrazolo[3,4-b]pyridin-5-yl]methyl}-2,2′-bipyridine-4,4′-dicarboxamide]"
16,0.0158 to 0.1 nM,"CCc1nc2c(cnn2CC)c(NC2CCN(C(N)=O)CC2)c1CNC(=O)C1CCC(C(=O)NCc2c(CC)nc3c(cnn3CC)c2NC2CCN(C(N)=O)CC2)CC1 (stereo not drawn) [Example 11, N,N′-bis[(4-{[1-(aminocarbonyl)-4-piperidinyl]amino}-1,6-diethyl-1H-pyrazolo[3,4-b]pyridin-5-yl)methyl]-1,4-cyclohexanedicarboxamide trifluoroacetate]"
17,0.126 to 1 nM,"CCc1nc2c(cnn2CC)c(NC2CCOCC2)c1CNC(=O)COCC(=O)NCc1c(CC)nc2c(cnn2CC)c1NC1CCOCC1 [Example 9, 2,2′-oxybis(N-{[1,6-diethyl-4-(tetrahydro-2H-pyran-4-ylamino)-1H-pyrazolo[3,4-b]pyridin-5-yl]methyl}acetamide)]"
18,0.0158 to 0.1 nM,"CCc1nc2c(cnn2CC)c(NC2CCN(C(N)=O)CC2)c1CNC(=O)c1ccc(Oc2ccc(C(=O)NCc3c(CC)nc4c(cnn4CC)c3NC3CCN(C(N)=O)CC3)cc2)cc1 [Example 27, 4,4′-{oxybis[benzene-4,1-diyl(oxomethanediyl)iminomethanediyl(1,6-diethyl-1H-pyrazolo[3,4-b]pyridine-5,4-diyl)imino]}di(1-piperidinecarboxamide)]"

# — patent publication US20090326003A1, “PYRAZOLO (3, 4-B) PYRIDINE DERIVATIVES AS PDE4 INHIBITORS” (priority 2006, published 2009)
